Square brackets hold non-standard residues; d marks the D form. Ends that are not written are not given here. Peptide text beside a SMILES is read from it. pY = N[C@@H](Cc1ccc(OP(=O)(O)O)cc1)C(=O)O
T1: SOCS-3 (recombinant, His-tagged) (mouse, UniProt O35718)
T1 chain: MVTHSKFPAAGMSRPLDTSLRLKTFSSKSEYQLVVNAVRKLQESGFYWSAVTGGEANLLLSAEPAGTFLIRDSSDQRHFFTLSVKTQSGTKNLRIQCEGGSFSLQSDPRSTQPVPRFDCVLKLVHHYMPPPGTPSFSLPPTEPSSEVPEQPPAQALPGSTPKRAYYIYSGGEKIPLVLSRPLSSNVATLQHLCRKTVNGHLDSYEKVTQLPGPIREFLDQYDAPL

T2: SOCS-3 (Mus musculus, UniProt O35718)
T2 construct: hexahistidine (pET15b) (N); made in house; host or cells: E. coli BL21 DE3 pLysS
T2 sequence (O35718 1-225): T1 chain

B1: AcVA(pY)STVVHSG (peptide)
chain: Ac-VA[pY]STVVHSG-NH2
SMILES: CC(=O)N[C@H](C(=O)N[C@@H](C)C(=O)N[C@@H](Cc1ccc(OP(=O)(O)O)cc1)C(=O)N[C@@H](CO)C(=O)N[C@H](C(=O)N[C@H](C(=O)N[C@H](C(=O)N[C@@H](Cc1c[nH]cn1)C(=O)N[C@@H](CO)C(=O)NCC(N)=O)C(C)C)C(C)C)[C@@H](C)O)C(C)C
B2: gp130 phosphopeptide V12A (peptide)
chain: STASTVE[pY]STVAHSG-NH2
modifications: N-terminus assumed
SMILES: CC(C)[C@H](NC(=O)[C@@H](NC(=O)[C@H](CO)NC(=O)[C@H](Cc1ccc(OP(=O)(O)O)cc1)NC(=O)[C@H](CCC(=O)O)NC(=O)[C@@H](NC(=O)[C@@H](NC(=O)[C@H](CO)NC(=O)[C@H](C)NC(=O)[C@@H](NC(=O)[C@@H](N)CO)[C@@H](C)O)[C@@H](C)O)C(C)C)[C@@H](C)O)C(=O)N[C@@H](C)C(=O)N[C@@H](Cc1c[nH]cn1)C(=O)N[C@@H](CO)C(=O)NCC(N)=O
B3: AcTVE(pY)STVVHSG (peptide)
chain: Ac-TVE[pY]STVVHSG-NH2
SMILES: CC(=O)N[C@H](C(=O)N[C@H](C(=O)N[C@@H](CCC(=O)O)C(=O)N[C@@H](Cc1ccc(OP(=O)(O)O)cc1)C(=O)N[C@@H](CO)C(=O)N[C@H](C(=O)N[C@H](C(=O)N[C@H](C(=O)N[C@@H](Cc1c[nH]cn1)C(=O)N[C@@H](CO)C(=O)NCC(N)=O)C(C)C)C(C)C)[C@@H](C)O)C(C)C)[C@@H](C)O
B4: Ac(pY)STVVHSG (peptide)
chain: Ac-[pY]STVVHSG-NH2
SMILES: CC(=O)N[C@@H](Cc1ccc(OP(=O)(O)O)cc1)C(=O)N[C@@H](CO)C(=O)N[C@H](C(=O)N[C@H](C(=O)N[C@H](C(=O)N[C@@H](Cc1c[nH]cn1)C(=O)N[C@@H](CO)C(=O)NCC(N)=O)C(C)C)C(C)C)[C@@H](C)O
B5: AcE(pY)STVVHSG (peptide)
chain: Ac-E[pY]STVVHSG-NH2
SMILES: CC(=O)N[C@@H](CCC(=O)O)C(=O)N[C@@H](Cc1ccc(OP(=O)(O)O)cc1)C(=O)N[C@@H](CO)C(=O)N[C@H](C(=O)N[C@H](C(=O)N[C@H](C(=O)N[C@@H](Cc1c[nH]cn1)C(=O)N[C@@H](CO)C(=O)NCC(N)=O)C(C)C)C(C)C)[C@@H](C)O
B6: gp130 phosphopeptide H13A (peptide)
chain: STASTVE[pY]STVVASG-NH2
modifications: N-terminus assumed
SMILES: CC(C)[C@H](NC(=O)[C@@H](NC(=O)[C@@H](NC(=O)[C@H](CO)NC(=O)[C@H](Cc1ccc(OP(=O)(O)O)cc1)NC(=O)[C@H](CCC(=O)O)NC(=O)[C@@H](NC(=O)[C@@H](NC(=O)[C@H](CO)NC(=O)[C@H](C)NC(=O)[C@@H](NC(=O)[C@@H](N)CO)[C@@H](C)O)[C@@H](C)O)C(C)C)[C@@H](C)O)C(C)C)C(=O)N[C@@H](C)C(=O)N[C@@H](CO)C(=O)NCC(N)=O

Target: T1, SOCS-3 (recombinant, His-tagged)
Assay: competition, SPR
Details: not given

Molecule | IC50 [nM]
B1 | 550
B2 | 1100
B3 | 120
B4 | 9600
B5 | 970
B6 | 770

Target: T2, SOCS-3
Assay: Competitive binding assay on the Biosensor: soluble peptide displaces SOCS-3 from immobilized gp130 (750-764) phosphopeptide
Set-up: species or system murine
Details: IC50, Table 2, gp130(750-764) phosphopeptide and analogues
Description: Purified protein was refolded by dialysis into PBS containing 2 mM DTT, 2 mM EDTA and 0.02% v/v Tween 20. Refolded material was purified to homogeneity by ion exchange chromatography on a Mono S column (Pharmacia).
Samples were left overnight at 4° C. prior to analysis on the Biosensor so that the rate of protein loss due to absorption was minimal through the course of the experiment.
The inventors also used this competition assay to reassess the potential solution binding of the phosphopeptides listed in FIG. 1A.

Molecule | IC50 [nM]
CC(C)[C@H](NC(=O)[C@@H](NC(=O)[C@H](CO)NC(=O)[C@H](Cc1ccc(OP(=O)(O)O)cc1)NC(=O)[C@H](CCC(=O)O)NC(=O)[C@@H](NC(=O)[C@@H](NC(=O)[C@H](CO)NC(=O)[C@H](C)NC(=O)[C@@H](NC(=O)[C@@H](N)CO)[C@@H](C)O)[C@@H](C)O)C(C)C)[C@@H](C)O)C(=O)N[C@@H](C)C(=O)N[C@@H](Cc1c[nH]cn1)C(=O)N[C@@H](CO)C(=O)NCC(N)=O [STASTVE(pY)STVAHSG] (H-STASTVE[pY]STVAHSG-NH2; N-terminus assumed) | 1100
CC(C)[C@H](NC(=O)[C@@H](NC(=O)[C@@H](NC(=O)[C@H](CO)NC(=O)[C@H](Cc1ccc(OP(=O)(O)O)cc1)NC(=O)[C@H](CCC(=O)O)NC(=O)[C@@H](NC(=O)[C@@H](NC(=O)[C@H](CO)NC(=O)[C@H](C)NC(=O)[C@@H](NC(=O)[C@@H](N)CO)[C@@H](C)O)[C@@H](C)O)C(C)C)[C@@H](C)O)C(C)C)C(N)=O [STASTVE(pY)STVV] (H-STASTVE[pY]STVV-NH2; N-terminus assumed) | 1100

Same assay, conditions: relative to gp130 (750-764) parent phosphopeptide

Molecule | IC50 analogue/IC50 wild-type
CC(=O)N[C@@H](Cc1ccc(OP(=O)(O)O)cc1)C(=O)N[C@@H](CO)C(=O)N[C@H](C(=O)N[C@H](C(=O)N[C@H](C(=O)N[C@@H](Cc1c[nH]cn1)C(=O)N[C@@H](CO)C(=O)NCC(N)=O)C(C)C)C(C)C)[C@@H](C)O [Ac(pY)STVVHSG] (Ac-[pY]STVVHSG-NH2) | 87
CC(=O)N[C@@H](C)C(=O)N[C@@H](CCC(=O)O)C(=O)N[C@@H](Cc1ccc(OP(=O)(O)O)cc1)C(=O)N[C@@H](CO)C(=O)N[C@H](C(=O)N[C@H](C(=O)N[C@H](C(=O)N[C@@H](Cc1c[nH]cn1)C(=O)N[C@@H](CO)C(=O)NCC(N)=O)C(C)C)C(C)C)[C@@H](C)O [AcAE(pY)STVVHSG] (Ac-AE[pY]STVVHSG-NH2) | 5.3
CC(=O)N[C@@H](CCC(=O)O)C(=O)N[C@@H](Cc1ccc(OP(=O)(O)O)cc1)C(=O)N[C@@H](CO)C(=O)N[C@H](C(=O)N[C@H](C(=O)N[C@H](C(=O)N[C@@H](Cc1c[nH]cn1)C(=O)N[C@@H](CO)C(=O)NCC(N)=O)C(C)C)C(C)C)[C@@H](C)O [AcE(pY)STVVHSG] (Ac-E[pY]STVVHSG-NH2) | 8.8
CC(=O)N[C@H](C(=O)N[C@H](C(=O)N[C@@H](CCC(=O)O)C(=O)N[C@@H](Cc1ccc(OP(=O)(O)O)cc1)C(=O)N[C@@H](CO)C(=O)N[C@H](C(=O)N[C@H](C(=O)N[C@H](C(=O)N[C@@H](Cc1c[nH]cn1)C(=O)N[C@@H](CO)C(=O)NCC(N)=O)C(C)C)C(C)C)[C@@H](C)O)C(C)C)[C@@H](C)O [AcTVE(pY)STVVHSG] | 1.1
CC(=O)N[C@H](C(=O)N[C@@H](C)C(=O)N[C@@H](Cc1ccc(OP(=O)(O)O)cc1)C(=O)N[C@@H](CO)C(=O)N[C@H](C(=O)N[C@H](C(=O)N[C@H](C(=O)N[C@@H](Cc1c[nH]cn1)C(=O)N[C@@H](CO)C(=O)NCC(N)=O)C(C)C)C(C)C)[C@@H](C)O)C(C)C [AcVA(pY)STVVHSG] (Ac-VA[pY]STVVHSG-NH2) | 5.0
CC(C)[C@H](NC(=O)[C@@H](NC(=O)[C@@H](NC(=O)[C@H](C)NC(=O)[C@H](Cc1ccc(OP(=O)(O)O)cc1)NC(=O)[C@H](CCC(=O)O)NC(=O)[C@@H](NC(=O)[C@@H](NC(=O)[C@H](CO)NC(=O)[C@H](C)NC(=O)[C@@H](NC(=O)[C@@H](N)CO)[C@@H](C)O)[C@@H](C)O)C(C)C)[C@@H](C)O)C(C)C)C(=O)N[C@@H](Cc1c[nH]cn1)C(=O)N[C@@H](CO)C(=O)NCC(N)=O [STASTVE(pY)ATVVHSG] (H-STASTVE[pY]ATVVHSG-NH2; N-terminus assumed) | 0.65
CC(C)[C@H](NC(=O)[C@H](C)NC(=O)[C@@H](NC(=O)[C@H](CO)NC(=O)[C@H](Cc1ccc(OP(=O)(O)O)cc1)NC(=O)[C@H](CCC(=O)O)NC(=O)[C@@H](NC(=O)[C@@H](NC(=O)[C@H](CO)NC(=O)[C@H](C)NC(=O)[C@@H](NC(=O)[C@@H](N)CO)[C@@H](C)O)[C@@H](C)O)C(C)C)[C@@H](C)O)C(=O)N[C@@H](Cc1c[nH]cn1)C(=O)N[C@@H](CO)C(=O)NCC(N)=O [STASTVE(pY)STAVHSG] (H-STASTVE[pY]STAVHSG-NH2; N-terminus assumed) | 31
CC(C)[C@H](NC(=O)[C@@H](NC(=O)[C@H](CO)NC(=O)[C@H](Cc1ccc(OP(=O)(O)O)cc1)NC(=O)[C@H](CCC(=O)O)NC(=O)[C@@H](NC(=O)[C@@H](NC(=O)[C@H](CO)NC(=O)[C@H](C)NC(=O)[C@@H](NC(=O)[C@@H](N)CO)[C@@H](C)O)[C@@H](C)O)C(C)C)[C@@H](C)O)C(=O)N[C@@H](C)C(=O)N[C@@H](Cc1c[nH]cn1)C(=O)N[C@@H](CO)C(=O)NCC(N)=O [STASTVE(pY)STVAHSG] (H-STASTVE[pY]STVAHSG-NH2; N-terminus assumed) | 10
CC(C)[C@H](NC(=O)[C@@H](NC(=O)[C@@H](NC(=O)[C@H](CO)NC(=O)[C@H](Cc1ccc(OP(=O)(O)O)cc1)NC(=O)[C@H](CCC(=O)O)NC(=O)[C@@H](NC(=O)[C@@H](NC(=O)[C@H](CO)NC(=O)[C@H](C)NC(=O)[C@@H](NC(=O)[C@@H](N)CO)[C@@H](C)O)[C@@H](C)O)C(C)C)[C@@H](C)O)C(C)C)C(=O)N[C@@H](C)C(=O)N[C@@H](CO)C(=O)NCC(N)=O [STASTVE(pY)STVVASG] (H-STASTVE[pY]STVVASG-NH2; N-terminus assumed) | 7.0
CC(C)[C@H](NC(=O)[C@@H](NC(=O)[C@@H](NC(=O)[C@H](CO)NC(=O)[C@H](Cc1ccc(OP(=O)(O)O)cc1)NC(=O)[C@H](CCC(=O)O)NC(=O)[C@@H](NC(=O)[C@@H](NC(=O)[C@H](CO)NC(=O)[C@H](C)NC(=O)[C@@H](NC(=O)[C@@H](N)CO)[C@@H](C)O)[C@@H](C)O)C(C)C)[C@@H](C)O)C(C)C)C(=O)N[C@@H](Cc1c[nH]cn1)C(=O)N[C@@H](CO)C(N)=O [STASTVE(pY)STVVHS] | 0.55
CC(C)[C@H](NC(=O)[C@@H](NC(=O)[C@@H](NC(=O)[C@H](CO)NC(=O)[C@H](Cc1ccc(OP(=O)(O)O)cc1)NC(=O)[C@H](CCC(=O)O)NC(=O)[C@@H](NC(=O)[C@@H](NC(=O)[C@H](CO)NC(=O)[C@H](C)NC(=O)[C@@H](NC(=O)[C@@H](N)CO)[C@@H](C)O)[C@@H](C)O)C(C)C)[C@@H](C)O)C(C)C)C(=O)N[C@@H](Cc1c[nH]cn1)C(N)=O [STASTVE(pY)STVVH] (H-STASTVE[pY]STVVH-NH2; N-terminus assumed) | 0.70
CC(C)[C@H](NC(=O)[C@@H](NC(=O)[C@@H](NC(=O)[C@H](CO)NC(=O)[C@H](Cc1ccc(OP(=O)(O)O)cc1)NC(=O)[C@H](CCC(=O)O)NC(=O)[C@@H](NC(=O)[C@@H](NC(=O)[C@H](CO)NC(=O)[C@H](C)NC(=O)[C@@H](NC(=O)[C@@H](N)CO)[C@@H](C)O)[C@@H](C)O)C(C)C)[C@@H](C)O)C(C)C)C(N)=O [STASTVE(pY)STVV] (H-STASTVE[pY]STVV-NH2; N-terminus assumed) | 10

— patent US7256007B2, “Methods of regulating cytokine signalling” (The Walter and Eliza Hall Institute of Medical Research, priority 2000, dated 2007)
